In US9321756B2, “Azole compounds as PIM inhibitors” (priority 2011, dated 2016):
Read-outs that look alike come from different tables or passages of the source.

Legend:
Format in all cases: biochemical
[1] = target: full length recombinant Pim-1 (Homo sapiens (Human), UniProt P11309); test: Pim enzyme assay (HTRF, phosphorylation of biotinylated-BAD (S112) peptide), Pim-1; conditions: read-out: Pim_1_IC50
[2] = target: full length recombinant Pim-2 (Homo sapiens (Human), UniProt Q9P1W9); test: Pim enzyme assay (HTRF, phosphorylation of biotinylated-BAD (S112) peptide), Pim-2; conditions: read-out: Pim2_IC50
Sequence of full length recombinant Pim-2 (Q9P1W9 whole entry): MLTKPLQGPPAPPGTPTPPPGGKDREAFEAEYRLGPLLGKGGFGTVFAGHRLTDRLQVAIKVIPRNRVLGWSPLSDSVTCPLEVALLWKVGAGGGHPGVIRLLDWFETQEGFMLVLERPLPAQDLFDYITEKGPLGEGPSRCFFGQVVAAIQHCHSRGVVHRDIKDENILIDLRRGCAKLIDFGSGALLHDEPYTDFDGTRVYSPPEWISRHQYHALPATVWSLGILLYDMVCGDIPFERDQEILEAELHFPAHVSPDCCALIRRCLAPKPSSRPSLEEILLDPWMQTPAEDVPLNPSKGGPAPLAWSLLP

[3] = target: full length recombinant Pim-3 (Homo sapiens (Human), UniProt Q86V86); test: Pim enzyme assay (HTRF, phosphorylation of biotinylated-BAD (S112) peptide), Pim-3; conditions: read-out: Pim3 IC50
Description: Pim-3 was purchased from Millipore (UK).
The phosphorylation of biotinylated-BAD (S112) peptide by full length recombinant Pim-1, Pim-2, or Pim-3 protein was detected with streptavidin:Allophycocyanin (APC) conjugate and a europium (Eu) labeled antibody directed against phosphorylated-BAD (S112). […] The fluorescence is directly proportional to the amount of phosphorylated BAD peptide present in the reaction.
A reference compound was included on each assay plate in order to validate that plate; on one plate of every assay run, two additional reference compounds were included.
The final buffer conditions were as follows: 60 mM Hepes, pH 7.0, 0.05% BSA, 2 mM DTT. Incubations were carried out at RT (22° C.) for 2 h for Pim-1, 1 h and 30 min for Pim-3, and 45 min for Pim-2. The reaction was then stopped by the addition of 3 mM EDTA, and fluorescence was measured by an HTRF® Rubystar microplate reader. For each plate, percent of control (POC) values were calculated for each well. Values for the IC50 IP were estimated using a standard 4-parameter logistic model.

Sequence of full length recombinant Pim-1 (P11309 whole entry): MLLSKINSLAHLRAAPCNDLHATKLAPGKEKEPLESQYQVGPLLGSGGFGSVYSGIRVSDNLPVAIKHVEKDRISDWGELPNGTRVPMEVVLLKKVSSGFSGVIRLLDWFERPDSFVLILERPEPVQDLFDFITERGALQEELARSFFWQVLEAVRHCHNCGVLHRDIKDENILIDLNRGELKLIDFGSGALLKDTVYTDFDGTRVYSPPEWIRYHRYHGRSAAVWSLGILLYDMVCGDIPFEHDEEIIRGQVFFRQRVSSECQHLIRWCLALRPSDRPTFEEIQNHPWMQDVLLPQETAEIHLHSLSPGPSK

| Compound | IC50 ([1]; Pim-1 enzyme assay) [µM] | IC50 ([2]; Pim-2 enzyme assay) [µM] | IC50 ([3]; Pim-3 enzyme assay) [µM] | IC50 [2] [µM] | IC50 [3] [µM] | IC50 ([1]; HTRF, 10-point curve, high dose 1 uM, 2 h at RT) [µM] | IC50 ([2]; HTRF, 10-point curve, high dose 1 uM, 45 min at RT) [µM] |
| --- | --- | --- | --- | --- | --- | --- | --- |
| Fc1ccccc1-c1c[nH]c2ccc(-c3nnc(NCc4ccc5[nH]ccc5c4)s3)cc12 [Example 142, 5-(3-(2-fluorophenyl)-1H-indol-5-yl)-N-(1H-indol-5-ylmethyl)-1,3,4-thiadiazol-2-amine] | 0.109 | 1.48 | 0.0595 |  |  |  |  |
| O=c1[nH]nc(-c2ccc3[nH]cc(-c4cncc(C5CC5)n4)c3c2)o1 [Example 38, 5-(3-(6-Cyclopropylpyrazin-2-yl)-1H-indol-5-yl)-1,3,4-oxadiazol-2(3H)-one 2,2,2-trifluoroacetate] | 0.0655 |  |  | 0.0545 | 0.0377 |  |  |
| COc1cncc(-c2c[nH]c3ccc(-c4nnc(N)s4)cc23)c1 [Example 199, 5-(3-(5-methoxy-3-pyridinyl)-1H-indol-5-yl)-1,3,4-thiadiazol-2-amine] | 0.268 | 0.618 | 0.165 |  |  |  |  |
| CNc1nnc(-c2ccc3[nH]cc(-c4cn[nH]c4)c3c2)s1 [Example 218, N-methyl-5-(3-(1H-pyrazol-4-yl)-1H-indol-5-yl)-1,3,4-thiadiazol-2-amine] | 0.241 | 0.623 | 0.123 |  |  |  |  |
| Nc1nnc(-c2ccc3[nH]cc(-c4cnc5ccccc5c4)c3c2)s1 [Example 21, 5-(3-(quinolin-3-yl)-1H-indol-5-yl)-1,3,4-thiadiazol-2-amine] | 0.178 | 1.01 | 0.179 |  |  |  |  |
| CNc1nnc(-c2ccc3[nH]cc(-c4cccc(-c5ccccc5)c4)c3c2)s1 [Example 22, 5-(3-(biphenyl-3-yl)-1H-indol-5-yl)-N-methyl-1,3,4-thiadiazol-2-amine] | 2.8 | > 3 | 1.47 |  |  |  |  |
| Nc1nnc(-c2ccc3[nH]cc(-c4cncc(C(=O)N5CCOCC5)c4)c3c2)o1 [Example 82, 5-(3-(5-(4-morpholinylcarbonyl)-3-pyridinyl)-1H-indol-5-yl)-1,3,4-oxadiazol-2-amine] | 2.35 | 1.78 | 2.38 |  |  |  |  |
| Cc1nnc2n1CCN(c1cccc(-c3c[nH]c4ccc(-c5nnc(N)s5)cc34)n1)C2 [Example 25, 5-(3-(6-(3-methyl-5,6-dihydro-[1,2,4]triazolo[4,3-a]pyrazin-7(8H)-yl)pyridin-2-yl)-1H-indol-5-yl)-1,3,4-thiadiazol-2-amine 2,2,2-trifluoroacetate] | 0.0175 | 0.0887 | 0.00302 |  |  |  |  |
| Nc1nnc(-c2ccc3[nH]cc(-c4ncccn4)c3c2)o1 [Example 93, 5-(3-(2-pyrimidinyl)-1H-indol-5-yl)-1,3,4-oxadiazol-2-amine] | 0.269 | 0.111 | 0.14 |  |  |  |  |
| CNc1nnc(-c2ccc3[nH]cc(-c4cnc5ccccc5c4)c3c2)s1 [Example 217, N-methyl-5-(3-(3-quinolinyl)-1H-indol-5-yl)-1,3,4-thiadiazol-2-amine] | 0.234 | 1.63 | 0.181 |  |  |  |  |
| Nc1ncc(-c2ccc3[nH]cc(-c4cnc5ccccc5c4)c3c2)s1 [Example 20, 5-(3-(quinolin-3-yl)-1H-indol-5-yl)thiazol-2-amine] | 0.281 |  | 0.267 | 2.71 |  |  |  |
| C[C@H]1CCCCN1c1nc(-c2c[nH]c3ccc(-c4nnc(N)s4)cc23)cs1 (stereo in doubt) [Example 184, 5-(3-(2-(2-methyl-1-piperidinyl)-1,3-thiazol-4-yl)-1H-indol-5-yl)-1,3,4-thiadiazol-2-amine] | 0.161 | 0.602 | 0.0947 |  |  |  |  |
| Nc1nnc(-c2ccc3[nH]cc(-c4cccc(-n5ccccc5=O)n4)c3c2)s1 [Example 185, 6′-(5-(5-amino-1,3,4-thiadiazol-2-yl)-1H-indol-3-yl)-2H-1,2′-bipyridin-2-one] | 0.224 | 0.244 | 0.0682 |  |  |  |  |
| Nc1nnc(-c2ccc3[nH]cc(-c4cccc(C(F)(F)F)n4)c3c2)s1 [Example 182, 5-(3-(6-(trifluoromethyl)-2-pyridinyl)-1H-indol-5-yl)-1,3,4-thiadiazol-2-amine] | 0.121 | 0.135 | 0.0225 |  |  |  |  |
| Fc1ccccc1-c1c[nH]c2ccc(-c3nnc(NCc4ccccc4)s3)cc12 [Example 149, N-benzyl-5-(3-(2-fluorophenyl)-1H-indol-5-yl)-1,3,4-thiadiazol-2-amine] | 1.05 | > 3 | 0.522 |  |  |  |  |
| Nc1cncc(-c2c[nH]c3ccc(-c4nnc(N)s4)cc23)n1 [Example 210, 6-(5-(5-amino-1,3,4-thiadiazol-2-yl)-1H-indol-3-yl)-2-pyrazinamine] | 0.142 | 0.192 | 0.0287 |  |  |  |  |

| Compound | IC50 ([1]; Pim-1 enzyme assay) [µM] | IC50 ([2]; Pim-2 enzyme assay) [µM] | IC50 ([3]; Pim-3 enzyme assay) [µM] | IC50 [2] [µM] | IC50 [3] [µM] | IC50 ([1]; HTRF, 10-point curve, high dose 1 uM, 2 h at RT) [µM] | IC50 ([2]; HTRF, 10-point curve, high dose 1 uM, 45 min at RT) [µM] |
| --- | --- | --- | --- | --- | --- | --- | --- |
| Nc1nnc(-c2ccc3[nH]cc(-c4cc(C(=O)Nc5ccccc5)ccc4F)c3c2)s1 [Example 137, 3-(5-(5-amino-1,3,4-thiadiazol-2-yl)-1H-indol-3-yl)-4-fluoro-N-phenylbenzamide] | 0.176 | 0.237 | 0.0903 |  |  |  |  |
| CC(Nc1nnc(-c2ccc3[nH]cc(-c4cnccn4)c3c2)o1)c1ccccc1 (stereo not shown) [Example 268, N-(1-phenylethyl)-5-(3-(2-pyrazinyl)-1H-indol-5-yl)-1,3,4-oxadiazol-2-amine] | 0.171 | 0.559 | 0.0812 |  |  |  |  |
| Nc1nnc(-c2ccc3[nH]cc(-c4cnn(CCN5CCOCC5)c4)c3c2)o1 [Example 81, 5-(3-(1-(2-(4-morpholinyl)ethyl)-1H-pyrazol-4-yl)-1H-indol-5-yl)-1,3,4-oxadiazol-2-amine] | 0.101 | 0.273 | 0.147 |  |  |  |  |
| CC(C)Oc1cccc(-c2c[nH]c3ccc(-c4nnc(N)o4)nc23)c1 [Example 126, 5-(3-(3-(1-methylethoxy)phenyl)-1H-pyrrolo[3,2-b]pyridin-5-yl)-1,3,4-oxadiazol-2-amine] | 0.272 | 0.244 | 0.0848 |  |  |  |  |
| CNc1nnc(-c2ccc3[nH]cc(-c4cccc(-n5ccccc5=O)n4)c3c2)s1 [Example 238, 6′-(5-(5-(methylamino)-1,3,4-thiadiazol-2-yl)-1H-indol-3-yl)-2H-1,2′-bipyridin-2-one] | 0.712 | 0.856 | 0.197 |  |  |  |  |
| CC(C)Oc1cccc(-c2c[nH]c3ccc(-c4nnc(N)o4)cc23)c1 [Example 85, 5-(3-(3-(1-methylethoxy)phenyl)-1H-indol-5-yl)-1,3,4-oxadiazol-2-amine] | 0.225 | 0.385 | 0.0818 |  |  |  |  |
| Nc1nnc(-c2ccc3[nH]cc(-c4cccc(NC5CCCCC5)n4)c3c2)s1 [Example 205, 6-(5-(5-amino-1,3,4-thiadiazol-2-yl)-1H-indol-3-yl)-N-cyclohexyl-2-pyridinamine] | 0.11 | 0.227 | 0.0216 |  |  |  |  |
| Nc1nnc(-c2ccc3[nH]cc(-c4cnc(OC5CCCC5)cn4)c3c2)s1 [Example 195, 5-(3-(5-(cyclopentyloxy)-2-pyrazinyl)-1H-indol-5-yl)-1,3,4-thiadiazol-2-amine] | 0.956 | 1.34 | 0.506 |  |  |  |  |
| NC(=O)c1nnc(-c2ccc3[nH]cc(-c4cccc(N5CCOCC5)n4)c3c2)s1 [Example 242, 5-(3-(6-(4-morpholinyl)-2-pyridinyl)-1H-indol-5-yl)-1,3,4-thiadiazole-2-carboxamide] | 0.983 | > 3 | 0.351 |  |  |  |  |
| Cc1ccn(-c2cnc(-c3c[nH]c4ccc(-c5nnc(N)s5)cc34)cn2)n1 [Example 197, 5-(3-(5-(3-methyl-1H-pyrazol-1-yl)-2-pyrazinyl)-1H-indol-5-yl)-1,3,4-thiadiazol-2-amine] | 2.27 | 2.9 | 0.836 |  |  |  |  |
| Nc1nnc(-c2ccc3[nH]cc(-c4cnc(N5CCCC5=O)cn4)c3c2)s1 [Example 194, 1-(5-(5-(5-amino-1,3,4-thiadiazol-2-yl)-1H-indol-3-yl)-2-pyrazinyl)-2-pyrrolidinone] | 0.945 | 1.04 | 0.509 |  |  |  |  |
| Cc1nc(-c2c[nH]c3ccc(-c4nnc(N)s4)cc23)ccc1F [Example 191, 5-(3-(5-fluoro-6-methyl-2-pyridinyl)-1H-indol-5-yl)-1,3,4-thiadiazol-2-amine] |  |  | 0.144 |  |  |  |  |
| COc1nc(-c2c[nH]c3ccc(-c4nnc(NC(C)C)o4)cc23)cc(=O)[nH]1 [Example 298, 2-methoxy-6-(5-(5-((1-methylethyl)amino)-1,3,4-oxadiazol-2-yl)-1H-indol-3-yl)-4(3H)-pyrimidinone] |  |  |  |  |  | 0.0159 | 0.0244 |
| CC(C)Nc1cncc(-c2c[nH]c3ccc(-c4noc(N)n4)cc23)n1 [Example 70, 3-(3-(6-(isopropylamino)pyrazin-2-yl)-1H-indol-5-yl)-1,2,4-oxadiazol-5-amine] | 0.0304 | 0.362 |  |  |  |  |  |
| CC(C)Nc1nnc(-c2ccc3[nH]cc(-c4ncc(F)c(C5CC5)n4)c3c2)o1 [Example 262, 5-(3-(4-cyclopropyl-5-fluoro-2-pyrimidinyl)-1H-indol-5-yl)-N-(1-methylethyl)-1,3,4-oxadiazol-2-amine] | 0.00253 | 0.00277 |  |  |  |  |  |
